# Reference: US20250213700A1, “COMPOUNDS, COMPOSITIONS, AND METHODS FOR CELL-SPECIFIC PHARMACOLOGY” (Duke University, priority 2022, published 2025)
# Key:
# [1] = tested on: AMPAR; experiment: positive allosteric modulation of the AMPAR by CMPDA reagents; format: cell-based
# Source text: To complete the bidirectional ionotropic toolkit, allosteric modulators of the AMPAR were explored. For many pharmaceuticals of this class, including cyclothiazide, two drug molecules are known to bind in close proximity, one on each side of the interface between adjacent ligand-binding domains. Thus, newer pharmaceuticals of this class were focused on, which can span the two binding sites simultaneously, reasoning that it would be easier to accommodate a single tether into the binding interface. In particular, CMPDA (phenyl-1,4-bisalkylsulfonamide) was focused on, owing to its structural simplicity and availability of an experimental atomic structure. […] A synthetic scheme to resynthesize CMPDA while installing a short PEG spacer domain at a point of attachment was devised to allow tether access from the allosteric binding site to free solution. […] Altering the electrostatic properties of the spacer domain was explored. In silico docking and experimental iteration to redesign the electronegative spacer (CCOCCOCC) into a polar neutral spacer (CBNCCCNC) was used, yielding CMPDA.2alkyne, which was converted into the full-length CMPDA.2DART.2.
# [2] = tested on: AMPAR; experiment: whole-mount retina, AMPAR-mediated evoked EPSC in retinal ganglion cells; format: cell-based, mouse; details: 300 nM, 15 min
# Procedure: (FIG. 6A) Viral strategy (top panel). […] Experimental overview (second panel from the top to bottom panel). Top: whole retina; synaptic current is evoked (stim) and recorded (voltage-clamp of dTomato+ RGC), with ionic and pharmaceutical conditions chosen to isolate the AMPAR or GABAAR. A 10 min baseline is followed by 15 min application of 300 nM Rx^DART.2+30 nM Alexa^647.1DART.2. […] (FIG. 6B) CMPDA.2^DART.2 (left). Electropositive spacer (PDB 3RNN). […] AMPAR structural model (middle) (composite of PDB 5WEO, 3RNN, and 1FTL). Cylinder depicts cell membrane. […] YM90K.1^DART.2 (right). Structural model (PDB 1FTL). […] (FIG. 6C) diazepam.1^DART.2 (left). Structural model (PDB 6HUP). […] GABAAR (middle) structural model (composite of PDB 6HUP and 6HUK). […] Structural model (PDB 6HUK).
# Preparation of Retina: Mice were intravitreal injected AAV10 HaloTag™-dTomato to eyes. After 8-12 weeks, the mice killed by cervical dislocation. Both eyes were removed and dissected under a stereo-microscope. Retinas were isolated from the eyecups and placed in oxygenated (95% O2/5% CO2) cold-Ames medium (Sigma-Aldrich), supplemented with 21 mM NaHCO3. After the vitreous body was removed, a retina was cut into 3 pieces, leaving each retina piece attached to a filter paper with 2 mm hole by retina ganglion-cell-side-down. The pieces of retina were stored in bubbled Ames solution at room temperature, then transferred to recording chamber with retina ganglion-cell-side-up for recording.
# Whole-cell patch-clamp recording: The brain slices or retinas were perfused with bubbled aCSF at 29-30° C. with a 2 ml/min flow rate. Recordings were made by whole cell patch recording techniques using a Multiclamp 700B amplifier (Molecular Devices, Axon Instruments Inc., Union City, CA). The signals were filtered at 10 KHz and acquired using Digitate 1440A and pClamp 10.7 (Molecular Devices). The recording pipettes (4 MΩ-6 MΩ) were filled with internal solutions. For GABAA receptor-mediated evoked inhibitory postsynaptic currents ([…]) recording, the pipettes filled with Cesium Chloride-based internal solution (in mM) 135 CsCl, 2 MgCl2, 0.5 EGTA, 10 HEPES, 4 Mg-ATP, 0.5 Na-GTP, 10 Na2-phosphocreatine, and QX314 (lidocaine N-ethyl bromide), pH adjusted to 7.3 with CsOH (290 mosm). For AMPA-receptor mediated evoked excitatory postsynaptic currents (eEPSCs) recording, the pipette solution contained (in mM) 130 CsMeS, 1 MgCl2, 0.5 EGTA, 10 HEPES, 4 Mg-ATP, 0.5 Na-GTP, 10 Na2-phosphocreatine, and 4 QX314, pH adjusted to 7.3 with CsOH (290 mosm). For experiment of brain slices and retinas, the eIPSCs or eEPSCs were elicited by electrical stimuli at 0.067 Hz in 0.3-ms duration and 150-300-ρA (60-70% maximum responses) stimulation intensity at a holding potential of −70 mV. The stimulating electrode was placed within 60-100 μm from the recording neuron under voltage-clamp mode. GABA-receptor mediated eIPSCs were isolated in the presence of DNQX ([…] AMPAR antagonist) and AP-V ([…] antagonist) in the bath solution. For AMPA-receptor mediated eEPSCs, added picrotoxin ([…], GABAAR antagonist) and AP-V ([…]) to the bath solution.
# [3] = biodistribution to cortex after lateral ventricle infusion (wide-field fluorescence through cranial window); format: in vivo, mouse; details: -HTP mice, high dose into lateral ventricle
# Source text: To maintain control of the ambient drug concentration in vivo, thus far a cannula was implanted in close proximity to the desired brain target. (FIG. 5) However, optical and electrical brain interfaces often occupy this precious real estate. For example, cranial window technologies, in which a portion of the skull is replaced with a glass window, have become instrumental in studying the neocortex. Application of drugs through a glass window remains an unsolved problem, as access ports will generally close due to scarring, and temporary removal of the window can compromise the preparation. Thus, it was asked whether DART.2 could enable dosing from a distance via the cerebrospinal fluid (CSF). Delivery via the cisterna magna was first explored, given reports that dextran tracers delivered at this site achieve rapid biodistribution throughout the neocortex parenchyma. Although there was some preliminary success with this approach, it was found difficult to establish mechanically stable cannulation of the cisterna magna, owing to its position below the base of the skull and to the mobility of the neck muscles. […] Following surgical recovery, a high dose of Alexa647.1DART.2 was fused into the LV (dose, volume) and monitored wide-field fluorescence intensity through the cranial window. Fluorescence intensity peaked 2 hr later, and largely cleared by 24 hours (i2055,i2056). […]
# [4] = tested on: +HTP somatostatin interneurons and -HTP neurons of V1 visual cortex; experiment: 2P calcium imaging of V1 visual responses after contralateral ventricle infusion, SOM-Cre mice; format: in vivo, mouse; details: infused with YM90K.1DART.2 into contralateral ventricle, widefield fluorescence
# Procedure: Top left: Mice expressing pan-neuronal GCaMP8s with SOM-specific ^+HTP. Window over V1. DART delivered via the contralateral ventricle. Bottom left: In-vivo and ex-vivo expression and dye capture. Right: Mice presented oriented visual gratings, 2P Ca^2+ imaging obtained before and 5-6 hr after infusion of 0.3 nmole Alexa647.1^DART.2+3 nmole YM90K.1^DART.2 (2 μL volume) into the contralateral ventricle.
# Next, it was examined whether this strategy could deliver a pharmacologically active DART to genetically defined cells. A surgery was performed in which AAV DIO +HTPGPI was injected into the V1 visual cortex of SOM-Cre mice for cell-specific expression in somatostatin interneurons, along with a co-injected AAV-GCaMP8s virus for pan-neuronal neural activity monitoring. A cannula was implanted in the contralateral ventricle, and glass window over V1. Following surgical recovery, a mixture of YM90K.1DART.2+Alexa647.1DART.2 was infused. […] To test for pharmacological effects, 2P calcium imaging of +HTP and −HTP was performed while mice were presented with oriented gratings. A reduction in +HTP visual response was apparent 4 hours post DART infusion. This reduction persisted even after 24 hours post infusion.
# [5] = molecular target: T1, HTP on retinal ganglion cells (Rhodococcus rhodochrous, UniProt P0A3G2, A155T/A167V/A172T/A224E/C128F/C176G/D78G/E160K/E257K/H272N/K175M/K195N/L47V/L88M/N227D/S58T/T264A/Y273L/Y87F); experiment: tracer dye capture on retinal ganglion cells; format: cell-based, mouse; details: 30 nM, 15 min, after washout
# T1 construct: SSnlg signal peptide (residues 1-49 of mouse neuroligin-1) (N); Thy1 GPI anchor signal (C); expressed in transfected cells; host or cells: mouse neurons transduced in vivo with AAV-DIO-+HTPGPI (D1-Cre dorsal striatum; PV::cre retinal ganglion cells)
# T1 sequence (P0A3G2 other isoform, or with tags, fused parts or gaps with the stated changes): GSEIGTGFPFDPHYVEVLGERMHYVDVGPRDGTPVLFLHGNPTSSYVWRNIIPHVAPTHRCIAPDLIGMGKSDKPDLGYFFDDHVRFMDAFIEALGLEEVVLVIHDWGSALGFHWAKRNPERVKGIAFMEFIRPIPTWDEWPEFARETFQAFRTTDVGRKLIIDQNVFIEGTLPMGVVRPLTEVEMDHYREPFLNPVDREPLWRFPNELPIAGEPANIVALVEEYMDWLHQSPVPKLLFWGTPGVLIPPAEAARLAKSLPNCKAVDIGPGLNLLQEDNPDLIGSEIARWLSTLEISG
# Procedure: FIG. 6A-6C show bidirectional manipulation of AMPAR and GABAAR neurotransmission. (FIG. 6A) Viral strategy (top panel). Intravitreal AAV7m8-DIO-HTPGPI-2A-dTomao achieves retinal ganglion cell (RGC) expression in PV::cre mice. Experimental overview (second panel from the top to bottom panel). Top: whole retina; synaptic current is evoked (stim) and recorded (voltage-clamp of dTomato+ RGC), with ionic and pharmaceutical conditions chosen to isolate the AMPAR or GABAAR. A 10 min baseline is followed by 15 min application of 300 nM Rx^DART.2+30 nM Alexa^647.1DART.2. […] (FIG. 6B) CMPDA.2^DART.2 (left). Electropositive spacer (PDB 3RNN). […] EPSC waveform before and after CMPDA.2^DART.2. AMPAR structural model (middle) (composite of PDB 5WEO, 3RNN, and 1FTL). Cylinder depicts cell membrane. CMPDA.2^DART.2 binds within an inter-clamshell interface (2 per receptor). YM90K.1^DART.2 binds the orthosteric glutamate binding site in the clamshell (4 per receptor). YM90K.1^DART.2 (right). […]
# Next it was asked whether bidirectional modulation of the AMPAR and GABAAR could be achieved in the same cell type. A preparation was focused on in which electrophysiology is the primary readout, enabling resolution of the amplitude and millisecond time-constant of synaptic transmission. […] A whole-mount retina was later prepared and evoked synaptic currents were measured under conditions that isolate the AMPAR or GABAAR. […]
SMILES,positive modulation of the AMPAR [1],"AMPAR evoked EPSC integral (total charge transfer) boost, +HTP cells [2]","AMPAR evoked EPSC, ddHTP cells [2]","integrated EPSC charge transfer, +HTP RGCs [2]","AMPAR evoked EPSC, ddHTP cells ([2]; listed as CMPDA.2^DART.2)",time by which fluorescence largely cleared [3],time to peak fluorescence intensity over cortex [3],time for DART capture to reach steady state [4],dye capture on +HTP cells [5],dye capture on ddHTP or -HTP cells [5]
COc1cc(CCCCl)ccc1CCOCCNC(=O)c1ccc(CNC(=O)CCOCCOCCOCCOCCOCCOCCOCCOCCOCCOCCOCCOCCOCCOCCOCCOCCOCCOCCOCCOCCOCCOCCOCCOCCOCCOCCOCCOCCOCCOCCOCCOCCOCCOCCOCCOCCn2cc(COCCNCCCNC(=O)CC(CNS(=O)(=O)C(C)C)c3ccc(CCNS(=O)(=O)C(C)C)cc3)nn2)cc1 (centres unmarked) [CMPDA.2DART.2],restored the ability of the reagent to bind and produce positive allosterically modulation of the AMPAR,3 fold,No impact,three-fold increase,not ^ddHTP cells,,,,,
"C#CCOCCOCCOCCOCCOCCOCCC(CNS(=O)(=O)C(C)C)c1ccc(CCNS(=O)(=O)C(C)C)cc1 (centres unmarked) [CMPDA.1alkyne, N-(2-{4-[23-(propane-2-sulfonamido)-4,7, 10, 13, 16, 19-hexaoxatricos-1-yn-22-yl]phenyl}ethyl)propane-2-sulfonamide]",retained its ability to positively modulate the AMPAR,,,,,,,,,
COc1cc(CCCCl)ccc1CCOCCNC(=O)c1ccc(CNC(=O)CCOCCOCCOCCOCCOCCOCCOCCOCCOCCOCCOCCOCCOCCOCCOCCOCCOCCOCCOCCOCCOCCOCCOCCOCCOCCOCCOCCOCCOCCOCCOCCOCCOCCOCCOCCOCCn2cc(COCCOCCOCCOCCOCCOCCNC(=O)CCCCCC3(C)\C(=C/C=C/C=C/C4=[N+](CCCS(=O)(=O)O)c5ccc(S(=O)(=O)[O-])cc5C4(C)C)N(CCCS(=O)(=O)O)c4ccc(S(=O)(=O)O)cc43)nn2)cc1 (centres unmarked) [Alexa647.1DART.2],,,,,,≤ 24 h,2 h,4 to 8 h,robust capture,no detectible capture
